Like-named read-outs stand apart in the source and are kept apart here.
Test: Ocular tissue and plasma pharmacokinetics, 15 mg/kg single and BID oral, Dutch Belted rabbits (Example 3/5)
Type: in vivo
Method: Study design including group designation and dose levels are outlined in Table 4. […] Fifteen Dutch Belted and 5 New Zealand White rabbits were used as un-dosed controls. […] The dose volume was 5 mL/kg/dose for all groups. Safety was assessed with toxicological and ophthalmic examinations including slit lamp biomicroscopy, indirect ophthalmoscopy, rebound tonometry, and ultrasonic corneal pachymetry.
Analyst® software (Version 1.6.2) was used to capture the LC-MS/MS data and integrate the peak areas. Calibration standards and QCs were prepared in a blank solution of 75%:25% acetonitrile:water (v:v), ranging from 10 ng/mL to 10,000 ng/mL. Matrix matched standard and QC samples were prepared by mixing 2 μL of standard or QC sample above with 18 μL of appropriate ocular tissue or plasma. The final calibration standards ranged from 1 ng/mL to 1000 ng/mL. All plasma, retina, choroid-RPE, optic nerve, and vitreous humor samples were analyzed in a single run. Iris-ciliary body samples were analyzed in two runs due to a need for sample dilution. […] Dilution QCs were prepared at 5000 ng/mL where appropriate. Two sets of standards were used to bracket the analytical run at the beginning and end of the run. Three sets of QCs were included the analytical runs. All concentrations in ocular matrices are reported as ng/g based on the assumed density of 1 g/mL.
1, 6, 24, 96, 168, and 240 hours post-dose on Day 15, with the eyes collected at the same time as blood sampling. A single blood sample was taken from Groups 4 and 5 at sacrifice. Plasma, vitreous humor (VH), retina, choroid-retina pigmented epithelium (Choroid-RPE), optic nerve (ON), and iris-ciliary body (I-CB) were analyzed by LC-MS/MS to quantify test article concentrations. The lower limit of quantitation (LLOQ) in plasma and vitreous humor was 1.0 ng/mL. The LLOQ was 6.0 ng/g in retina, Choroid-RPE, and I-CB and the optic nerve LLOQ was 15 ng/g, assuming tissue density of 1 g/mL where relevant.
Study design including group designation and dose levels are outlined in Table 18.

[1] = Dutch Belted, rabbit, iris-ciliary body, po, 15 mg/kg, Iris-Ciliary Body, DB rabbit, 15 mg/kg BID, Day 15
[2] = Dutch Belted, rabbit, iris-ciliary body, po, 15 mg/kg, Iris-Ciliary Body, DB rabbit, 15 mg/kg single dose, Day 1
[3] = Dutch Belted, rabbit, vitreous humor, po, 15 mg/kg, Vitreous Humor, DB rabbit, 15 mg/kg BID, Day 15
[4] = Dutch Belted, rabbit, vitreous humor, po, 15 mg/kg, Vitreous Humor, DB rabbit, 15 mg/kg single dose, Day 1
[5] = plasma, DB rabbit, 15 mg/kg BID, Day 15
[6] = plasma, DB rabbit, 15 mg/kg single dose, Day 1
[7] = retina, DB rabbit, 15 mg/kg BID, Day 15
[8] = retina, DB rabbit, 15 mg/kg single dose, Day 1

CC(=O)c1nn(CC(=O)N2C[C@H](F)C[C@H]2C(=O)Nc2cccc(Br)n2)c2ccc(-c3cnc(C)nc3)cc12 [Compound 1, (2S,4R)-1-(2-(3-Acetyl-5-(2-methylpyrimidin-5-yl)-1H-indazol-1-yl)acetyl)-N-(6-bromopyridin-2-yl)-4-fluoropyrrolidine-2-carboxamide]
concentration at 0 h (Dutch Belted, rabbit, iris-ciliary body, po, 15 mg/kg, DB rabbit, 15 mg/kg BID oral, Day 15, 0 h, read-out: Mean Iris-Ciliary Body concentration): 2900 ng/g | concentration at 1 h (Dutch Belted, rabbit, iris-ciliary body, po, 15 mg/kg, DB rabbit, 15 mg/kg BID oral, Day 15, 1 h, read-out: Mean Iris-Ciliary Body concentration): 4920 ng/g | concentration at 6 h (Dutch Belted, rabbit, iris-ciliary body, po, 15 mg/kg, DB rabbit, 15 mg/kg BID oral, Day 15, 6 h, read-out: Mean Iris-Ciliary Body concentration): 3510 ng/g | concentration at 24 h (Dutch Belted, rabbit, iris-ciliary body, po, 15 mg/kg, DB rabbit, 15 mg/kg BID oral, Day 15, 24 h, read-out: Mean Iris-Ciliary Body concentration): 1640 ng/g | concentration at 96 h (Dutch Belted, rabbit, iris-ciliary body, po, 15 mg/kg, DB rabbit, 15 mg/kg BID oral, Day 15, 96 h, read-out: Mean Iris-Ciliary Body concentration): 1010 ng/g | concentration at 168 h (Dutch Belted, rabbit, iris-ciliary body, po, 15 mg/kg, DB rabbit, 15 mg/kg BID oral, Day 15, 168 h, read-out: Mean Iris-Ciliary Body concentration): 612 ng/g | concentration at 240 h (Dutch Belted, rabbit, iris-ciliary body, po, 15 mg/kg, DB rabbit, 15 mg/kg BID oral, Day 15, 240 h, read-out: Mean Iris-Ciliary Body concentration): 408 ng/g | concentration at 1 h (Dutch Belted, rabbit, iris-ciliary body, po, 15 mg/kg, DB rabbit, 15 mg/kg single oral dose, Day 1, 1 h, read-out: Mean Iris-Ciliary Body concentration): 1010 ng/g | concentration at 6 h (Dutch Belted, rabbit, iris-ciliary body, po, 15 mg/kg, DB rabbit, 15 mg/kg single oral dose, Day 1, 6 h, read-out: Mean Iris-Ciliary Body concentration): 528 ng/g | concentration at 24 h (Dutch Belted, rabbit, iris-ciliary body, po, 15 mg/kg, DB rabbit, 15 mg/kg single oral dose, Day 1, 24 h, read-out: Mean Iris-Ciliary Body concentration): 300 ng/g | concentration at 96 h (Dutch Belted, rabbit, iris-ciliary body, po, 15 mg/kg, DB rabbit, 15 mg/kg single oral dose, Day 1, 96 h, read-out: Mean Iris-Ciliary Body concentration): 57.9 ng/g | concentration at 168 h (Dutch Belted, rabbit, iris-ciliary body, po, 15 mg/kg, DB rabbit, 15 mg/kg single oral dose, Day 1, 168 h, read-out: Mean Iris-Ciliary Body concentration): 27.1 ng/g | concentration at 240 h (Dutch Belted, rabbit, iris-ciliary body, po, 15 mg/kg, DB rabbit, 15 mg/kg single oral dose, Day 1, 240 h, read-out: Mean Iris-Ciliary Body concentration): 33.6 ng/g | MRT inf [1]: 81.5 h | MRT last [1]: 76.2 h | half-life [1]: 107 h | Cmax (Dutch Belted, rabbit, iris-ciliary body, po, 15 mg/kg, Iris-Ciliary Body, DB rabbit, 15 mg/kg BID, Day 15, read-out: Cmax): 4920 ng/g | MRT inf [2]: 69 h | MRT last [2]: 46.2 h | half-life [2]: 56 h | Cmax (Dutch Belted, rabbit, iris-ciliary body, po, 15 mg/kg, Iris-Ciliary Body, DB rabbit, 15 mg/kg single dose, Day 1, read-out: Cmax): 1010 ng/g | concentration at 0 h (Dutch Belted, rabbit, plasma, po, 15 mg/kg, DB rabbit, 15 mg/kg BID oral, Day 15, 0 h, read-out: Mean plasma concentration): 55.2 ng/mL | concentration at 1 h (Dutch Belted, rabbit, plasma, po, 15 mg/kg, DB rabbit, 15 mg/kg BID oral, Day 15, 1 h, read-out: Mean plasma concentration): 845 ng/mL | concentration at 6 h (Dutch Belted, rabbit, plasma, po, 15 mg/kg, DB rabbit, 15 mg/kg BID oral, Day 15, 6 h, read-out: Mean plasma concentration): 92.2 ng/mL | concentration at 24 h (Dutch Belted, rabbit, plasma, po, 15 mg/kg, DB rabbit, 15 mg/kg BID oral, Day 15, 24 h, read-out: Mean plasma concentration): 5.6 ng/mL | concentration at 96 h (Dutch Belted, rabbit, plasma, po, 15 mg/kg, DB rabbit, 15 mg/kg BID oral, Day 15, 96 h, read-out: Mean plasma concentration): 3.19 ng/mL | concentration at 1 h (Dutch Belted, rabbit, plasma, po, 15 mg/kg, DB rabbit, 15 mg/kg single oral dose, Day 1, 1 h, read-out: Mean plasma concentration): 318 ng/mL | concentration at 6 h (Dutch Belted, rabbit, plasma, po, 15 mg/kg, DB rabbit, 15 mg/kg single oral dose, Day 1, 6 h, read-out: Mean plasma concentration): 33.7 ng/mL | concentration at 24 h (Dutch Belted, rabbit, plasma, po, 15 mg/kg, DB rabbit, 15 mg/kg single oral dose, Day 1, 24 h, read-out: Mean plasma concentration): 25.4 ng/mL | concentration at 1 h (Dutch Belted, rabbit, retina, oral, 15 mg/kg, DB rabbits, Day 1, 15 mg/kg single dose, 1 hr, read-out: Mean Retina Concentration): 145 ng/g | concentration at 6 h (Dutch Belted, rabbit, retina, oral, 15 mg/kg, DB rabbits, Day 1, 15 mg/kg single dose, 6 hr, read-out: Mean Retina Concentration): 29.6 ng/g | concentration at 24 h (Dutch Belted, rabbit, retina, oral, 15 mg/kg, DB rabbits, Day 1, 15 mg/kg single dose, 24 hr, read-out: Mean Retina Concentration): 24.7 ng/g | concentration at 0 h (Dutch Belted, rabbit, retina, oral, 15 mg/kg, DB rabbits, Day 15, 15 mg/kg BID, 0 hr, read-out: Mean Retina Concentration): 114 ng/g | concentration at 1 h (Dutch Belted, rabbit, retina, oral, 15 mg/kg, DB rabbits, Day 15, 15 mg/kg BID, 1 hr, read-out: Mean Retina Concentration): 576 ng/g | concentration at 6 h (Dutch Belted, rabbit, retina, oral, 15 mg/kg, DB rabbits, Day 15, 15 mg/kg BID, 6 hr, read-out: Mean Retina Concentration): 237 ng/g | concentration at 24 h (Dutch Belted, rabbit, retina, oral, 15 mg/kg, DB rabbits, Day 15, 15 mg/kg BID, 24 hr, read-out: Mean Retina Concentration): 74.3 ng/g | concentration at 96 h (Dutch Belted, rabbit, retina, oral, 15 mg/kg, DB rabbits, Day 15, 15 mg/kg BID, 96 hr, read-out: Mean Retina Concentration): 28.1 ng/g | concentration at 168 h (Dutch Belted, rabbit, retina, oral, 15 mg/kg, DB rabbits, Day 15, 15 mg/kg BID, 168 hr, read-out: Mean Retina Concentration): 36.5 ng/g | concentration at 240 h (Dutch Belted, rabbit, retina, oral, 15 mg/kg, DB rabbits, Day 15, 15 mg/kg BID, 240 hr, read-out: Mean Retina Concentration): 25.3 ng/g | concentration at 0 h (Dutch Belted, rabbit, retina, po, 15 mg/kg, DB rabbit, 15 mg/kg BID oral, Day 15, 0 h, read-out: Mean retina concentration): 114 ng/g | concentration at 1 h (Dutch Belted, rabbit, retina, po, 15 mg/kg, DB rabbit, 15 mg/kg BID oral, Day 15, 1 h, read-out: Mean retina concentration): 576 ng/g | concentration at 6 h (Dutch Belted, rabbit, retina, po, 15 mg/kg, DB rabbit, 15 mg/kg BID oral, Day 15, 6 h, read-out: Mean retina concentration): 237 ng/g | concentration at 24 h (Dutch Belted, rabbit, retina, po, 15 mg/kg, DB rabbit, 15 mg/kg BID oral, Day 15, 24 h, read-out: Mean retina concentration): 74.3 ng/g | concentration at 96 h (Dutch Belted, rabbit, retina, po, 15 mg/kg, DB rabbit, 15 mg/kg BID oral, Day 15, 96 h, read-out: Mean retina concentration): 28.1 ng/g | concentration at 168 h (Dutch Belted, rabbit, retina, po, 15 mg/kg, DB rabbit, 15 mg/kg BID oral, Day 15, 168 h, read-out: Mean retina concentration): 36.5 ng/g | concentration at 240 h (Dutch Belted, rabbit, retina, po, 15 mg/kg, DB rabbit, 15 mg/kg BID oral, Day 15, 240 h, read-out: Mean retina concentration): 25.3 ng/g | concentration at 1 h (Dutch Belted, rabbit, retina, po, 15 mg/kg, DB rabbit, 15 mg/kg single oral dose, Day 1, 1 h, read-out: Mean retina concentration): 145 ng/g | concentration at 6 h (Dutch Belted, rabbit, retina, po, 15 mg/kg, DB rabbit, 15 mg/kg single oral dose, Day 1, 6 h, read-out: Mean retina concentration): 29.6 ng/g | concentration at 24 h (Dutch Belted, rabbit, retina, po, 15 mg/kg, DB rabbit, 15 mg/kg single oral dose, Day 1, 24 h, read-out: Mean retina concentration): 24.7 ng/g | MRT last (Dutch Belted, rabbit, retina, po, 15 mg/kg, retina, DB rabbit, 15 mg/kg BID, Day 15): 71 h | concentration at 0 h (Dutch Belted, rabbit, vitreous humor, po, 15 mg/kg, DB rabbit, 15 mg/kg BID oral, Day 15, 0 h, read-out: Mean Vitreous Humor concentration): 3.27 ng/mL | concentration at 1 h (Dutch Belted, rabbit, vitreous humor, po, 15 mg/kg, DB rabbit, 15 mg/kg BID oral, Day 15, 1 h, read-out: Mean Vitreous Humor concentration): 15.4 ng/mL | concentration at 6 h (Dutch Belted, rabbit, vitreous humor, po, 15 mg/kg, DB rabbit, 15 mg/kg BID oral, Day 15, 6 h, read-out: Mean Vitreous Humor concentration): 6.45 ng/mL | concentration at 1 h (Dutch Belted, rabbit, vitreous humor, po, 15 mg/kg, DB rabbit, 15 mg/kg single oral dose, Day 1, 1 h, read-out: Mean Vitreous Humor concentration): 7.26 ng/mL | concentration at 6 h (Dutch Belted, rabbit, vitreous humor, po, 15 mg/kg, DB rabbit, 15 mg/kg single oral dose, Day 1, 6 h, read-out: Mean Vitreous Humor concentration): 3.66 ng/mL | AUC(0-t) [3]: 64 ng·h/mL | MRT last [3]: 2.23 h | Cmax (Dutch Belted, rabbit, vitreous humor, po, 15 mg/kg, Vitreous Humor, DB rabbit, 15 mg/kg BID, Day 15, read-out: Cmax): 15.4 ng/mL | AUC(0-t) [4]: 30.9 ng·h/mL | MRT last [4]: 2.48 h | Cmax (Dutch Belted, rabbit, vitreous humor, po, 15 mg/kg, Vitreous Humor, DB rabbit, 15 mg/kg single dose, Day 1, read-out: Cmax): 7.26 ng/mL | Tlast (Iris-Ciliary Body, DB rabbit, 15 mg/kg BID, Day 15): 240 h | Tlast (Iris-Ciliary Body, DB rabbit, 15 mg/kg single dose, Day 1): 240 h | Tlast (Vitreous Humor, DB rabbit, 15 mg/kg BID, Day 15): 6 h | Tlast (Vitreous Humor, DB rabbit, 15 mg/kg single dose, Day 1): 6 h | AUClast [5]: 3990 ng·h/mL | Cmax [5]: 845 ng/mL | MRTlast [5]: 6.51 h | Tlast [5]: 96 h | AUClast [6]: 1570 ng·h/mL | Cmax [6]: 318 ng/mL | MRTlast [6]: 5.58 h | Tlast [6]: 24 h | C-RPE drug concentration at least 10 days following the last oral administration (rabbit, 15 mg/kg BID): 340 ng/mL | Cmax [7]: 576 ng/m | Tlast [7]: 240 h | Cmax [8]: 145 ng/m | MRTlast [8]: 7.83 h | Tlast [8]: 24 h
